Several values for one entry are separate records, joined by “and”; a condition that tells them apart may be missing. Identical values can stand only once. Inconclusive results and toxic doses are left out. No stated cut-off is given here; in the data, active means T/C of 150% or more; inactive means T/C below 125%.
System: L1210 leukemia ip in BDF1 mice, survival T/C
Assay: NCI In Vivo Anticancer Drug Screen. Data for tumor model L1210 Leukemia (intraperitoneal) in B6D2F1 (BDF1) mice
Settings: endpoint: mean survival time, higher = longer survival
Procedure, shortened: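 Each compound was tested against a transplantable tumor grown in mice. The endpoint was survival, with treated animals benchmarked against vehicle controls as a simple ratio.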

[1] = dose: 100.0 mg/kg/injection, schedule: Q01DX009 (ip), vehicle: Klucel (hydroxypropylcellulose) (HPC)
[2] = dose: 200.0 mg/kg/injection, schedule: Q01DX009 (ip), vehicle: Klucel (hydroxypropylcellulose) (HPC)
[3] = dose: 400.0 mg/kg/injection, schedule: Q01DX009 (ip), vehicle: Klucel (hydroxypropylcellulose) (HPC)
[4] = dose: 100.0 mg/kg/injection, schedule: Q01DX001 (ip), vehicle: saline with Tween-80
[5] = dose: 100.0 mg/kg/injection, schedule: Q01DX009 (ip), vehicle: saline with Tween-80
[6] = dose: 100.0 mg/kg/injection, schedule: Q04DX002 (ip), vehicle: saline with Tween-80
[7] = dose: 100.0 mg/kg/injection, schedule: Q04DX003 (ip), vehicle: saline with Tween-80
[8] = dose: 200.0 mg/kg/injection, schedule: Q01DX001 (ip), vehicle: saline with Tween-80
[9] = dose: 200.0 mg/kg/injection, schedule: Q01DX009 (ip), vehicle: saline with Tween-80
[10] = dose: 200.0 mg/kg/injection, schedule: Q04DX002 (ip), vehicle: saline with Tween-80
[11] = dose: 200.0 mg/kg/injection, schedule: Q04DX003 (ip), vehicle: saline with Tween-80
[12] = dose: 400.0 mg/kg/injection, schedule: Q01DX001 (ip), vehicle: saline with Tween-80
[13] = dose: 400.0 mg/kg/injection, schedule: Q01DX009 (ip), vehicle: saline with Tween-80
[14] = dose: 400.0 mg/kg/injection, schedule: Q04DX002 (ip), vehicle: saline with Tween-80
[15] = dose: 400.0 mg/kg/injection, schedule: Q04DX003 (ip), vehicle: saline with Tween-80
[16] = dose: 100.0 mg/kg/injection, schedule: Q04DX003 (ip), vehicle: Klucel (hydroxypropylcellulose) (HPC)
[17] = dose: 200.0 mg/kg/injection, schedule: Q04DX003 (ip), vehicle: Klucel (hydroxypropylcellulose) (HPC)
[18] = dose: 400.0 mg/kg/injection, schedule: Q04DX003 (ip), vehicle: Klucel (hydroxypropylcellulose) (HPC)

Measured: T/C

Cc1cc([N+](=O)[O-])ccc1NC(=O)Nc1cccc(C(F)(F)F)c1
inactive: [1] 88 % of control | [2] 92 % of control | [3] 90 % of control

CCC[CH2][Sn]1([CH2]CCC)[O]OC(c2ccc(C)cc2)[O]1 (centres undefined)
inactive: dose: 12.5 mg/kg/injection, schedule: Q01DX009 (ip), vehicle: Klucel (hydroxypropylcellulose) (HPC) 101 % of control | dose: 12.5 mg/kg/injection, schedule: Q04DX002 (ip), vehicle: Klucel (hydroxypropylcellulose) (HPC) 94 % of control | dose: 25.0 mg/kg/injection, schedule: Q01DX009 (ip), vehicle: Klucel (hydroxypropylcellulose) (HPC) 119 % of control | dose: 25.0 mg/kg/injection, schedule: Q04DX002 (ip), vehicle: Klucel (hydroxypropylcellulose) (HPC) 86 % of control

O=C(/C=C/c1ccccc1)Nc1cc([N+](=O)[O-])ccc1O
inactive: dose: 50.0 mg/kg/injection, schedule: Q01DX009 (ip), vehicle: Klucel (hydroxypropylcellulose) (HPC) 97 % of control | [1] 94 % of control and 87 % of control | [2] 94 % of control and 97 % of control | [3] 87 % of control

O=N[O-].O=N[O-].[Co].[NH-]CC[N-]CCO.[NH-]CC[N-]CCO
inactive: dose: 25.0 mg/kg/injection, schedule: Q01DX009 (ip), vehicle: water 109 % of control and 122 % of control | dose: 25.0 mg/kg/injection, schedule: Q04DX003 (ip), vehicle: water 99 % of control | dose: 50.0 mg/kg/injection, schedule: Q01DX009 (ip), vehicle: water 103 % of control and 109 % of control | dose: 50.0 mg/kg/injection, schedule: Q04DX003 (ip), vehicle: water 100 % of control | dose: 100.0 mg/kg/injection, schedule: Q01DX009 (ip), vehicle: water 120 % of control and 89 % of control | dose: 100.0 mg/kg/injection, schedule: Q04DX003 (ip), vehicle: water 97 % of control and 100 % of control

Cc1ccc(Cl)cc1NC(=O)Nc1cccc2c(O)cccc12
inactive: [4] 100 % of control | [5] 90 % of control and 92 % of control | [6] 94 % of control and 87 % of control | [7] 88 % of control | [8] 89 % of control | [9] 103 % of control and 90 % of control | [10] 97 % of control and 89 % of control | [11] 98 % of control | [12] 98 % of control | [13] 95 % of control | [14] 94 % of control and 95 % of control | [15] 101 % of control

O=C(NCc1ccc([N+](=O)[O-])cc1)OCc1ccccc1
inactive: [1] 103 % of control | [16] 102 % of control | [2] 102 % of control | [17] 104 % of control | [3] 94 % of control | [18] 96 % of control

CC(=O)Nc1ccc(/C=N\NC(=O)Nc2ccccc2)cc1
inactive: [1] 90 % of control | [2] 90 % of control | [3] 91 % of control

COc1ccc(NC(=O)Nc2cccc(Cl)c2C)c(OC)c1
inactive: [4] 98 % of control | [5] 93 % of control and 89 % of control | [6] 93 % of control and 92 % of control | [7] 86 % of control | [8] 102 % of control | [9] 94 % of control and 86 % of control | [10] 104 % of control and 90 % of control | [11] 86 % of control | [12] 100 % of control | [13] 97 % of control and 110 % of control | [14] 90 % of control | [15] 91 % of control

CC(CN=Cc1ccccc1[O-])N=Cc1ccccc1[O-].[O]=[V] (centres undefined)
inactive: dose: 5.0 mg/kg/injection, schedule: Q01DX009 (ip), vehicle: saline with Tween-80 94 % of control | dose: 10.0 mg/kg/injection, schedule: Q01DX009 (ip), vehicle: saline with Tween-80 91 % of control | dose: 20.0 mg/kg/injection, schedule: Q01DX009 (ip), vehicle: saline with Tween-80 97 % of control

Cc1cc(C)c(NC(=O)NC(C)C)c(C)c1
inactive: [1] 104 % of control | [16] 98 % of control | [2] 101 % of control | [17] 105 % of control | [3] 91 % of control | [18] 91 % of control

COC(=O)c1cc(Cl)c(C(=O)OC)cc1Cl
inactive: [16] 90 % of control | [17] 98 % of control | [18] 102 % of control

CCOC(=O)c1c[nH]c2ccc(OC)cc2c1=O
inactive: dose: 100.0 mg/kg/injection, schedule: Q01DX009 (ip), vehicle: saline 96 % of control | dose: 100.0 mg/kg/injection, schedule: Q04DX003 (ip), vehicle: saline 98 % of control | dose: 200.0 mg/kg/injection, schedule: Q01DX009 (ip), vehicle: saline 98 % of control | dose: 200.0 mg/kg/injection, schedule: Q04DX003 (ip), vehicle: saline 102 % of control | dose: 400.0 mg/kg/injection, schedule: Q01DX009 (ip), vehicle: saline 96 % of control | dose: 400.0 mg/kg/injection, schedule: Q04DX003 (ip), vehicle: saline 100 % of control

O=C1c2ccccc2-c2ccccc21
inactive: [5] 88 % of control | [7] 102 % of control | [9] 93 % of control | [11] 102 % of control | [13] 88 % of control | [15] 105 % of control

CC1(c2cccs2)NC(=O)N(Cl)C1=O (centres undefined)
inactive: dose: 25.0 mg/kg/injection, schedule: Q01DX009 (ip), vehicle: saline with Tween-80 93 % of control | dose: 25.0 mg/kg/injection, schedule: Q04DX003 (ip), vehicle: saline with Tween-80 99 % of control | dose: 50.0 mg/kg/injection, schedule: Q01DX009 (ip), vehicle: saline with Tween-80 96 % of control | dose: 50.0 mg/kg/injection, schedule: Q04DX003 (ip), vehicle: saline with Tween-80 99 % of control | [5] 105 % of control | [7] 100 % of control and 91 % of control | [9] 94 % of control

C1C2CC3C1C1CN3C21 (centres undefined)
inactive: dose: 6.25 mg/kg/injection, schedule: Q01DX001 (ip), vehicle: saline 100 % of control | dose: 12.5 mg/kg/injection, schedule: Q01DX001 (ip), vehicle: saline 97 % of control | dose: 25.0 mg/kg/injection, schedule: Q01DX001 (ip), vehicle: saline 111 % of control

CCOC(=O)c1cc([N+](=O)[O-])cc2c1-c1c(cc([N+](=O)[O-])cc1[N+](=O)[O-])C2=O
inactive: dose: 12.5 mg/kg/injection, schedule: Q04DX003 (ip), vehicle: Klucel (hydroxypropylcellulose) (HPC) 98 % of control | dose: 25.0 mg/kg/injection, schedule: Q04DX003 (ip), vehicle: Klucel (hydroxypropylcellulose) (HPC) 101 % of control | dose: 50.0 mg/kg/injection, schedule: Q04DX003 (ip), vehicle: Klucel (hydroxypropylcellulose) (HPC) 103 % of control | [16] 96 % of control

COC1OC(COS(C)(=O)=O)C(OS(C)(=O)=O)C(OS(C)(=O)=O)C1OS(C)(=O)=O (centres undefined)
inactive: [7] 91 % of control and 100 % of control | [11] 93 % of control and 91 % of control | [15] 88 % of control and 94 % of control

COc1ccc(O)c(C2(O)OC(=O)c3c(OC)cccc32)c1 (centres undefined)
inactive: dose: 100.0 mg/kg/injection, schedule: Q01DX001 (ip), vehicle: carboxymethylcellulose (CMC) 103 % of control and 111 % of control | dose: 100.0 mg/kg/injection, schedule: Q01DX009 (ip), vehicle: carboxymethylcellulose (CMC) 100 % of control and 89 % of control | dose: 100.0 mg/kg/injection, schedule: Q04DX002 (ip), vehicle: carboxymethylcellulose (CMC) 102 % of control and 113 % of control | dose: 100.0 mg/kg/injection, schedule: Q04DX003 (ip), vehicle: carboxymethylcellulose (CMC) 95 % of control and 100 % of control | dose: 200.0 mg/kg/injection, schedule: Q01DX001 (ip), vehicle: carboxymethylcellulose (CMC) 94 % of control and 106 % of control | dose: 200.0 mg/kg/injection, schedule: Q01DX009 (ip), vehicle: carboxymethylcellulose (CMC) 104 % of control and 89 % of control | dose: 200.0 mg/kg/injection, schedule: Q04DX002 (ip), vehicle: carboxymethylcellulose (CMC) 97 % of control | dose: 200.0 mg/kg/injection, schedule: Q04DX003 (ip), vehicle: carboxymethylcellulose (CMC) 94 % of control and 100 % of control | dose: 400.0 mg/kg/injection, schedule: Q01DX001 (ip), vehicle: carboxymethylcellulose (CMC) 94 % of control and 103 % of control | dose: 400.0 mg/kg/injection, schedule: Q04DX002 (ip), vehicle: carboxymethylcellulose (CMC) 97 % of control and 98 % of control | dose: 400.0 mg/kg/injection, schedule: Q04DX003 (ip), vehicle: carboxymethylcellulose (CMC) 95 % of control and 90 % of control

CC(C)CSC(C(O)C(O)C(O)CO)n1ccc(N)nc1=O (centres undefined)
inactive: dose: 100.0 mg/kg/injection, schedule: Q01DX005 (ip), vehicle: saline 90 % of control | dose: 200.0 mg/kg/injection, schedule: Q01DX005 (ip), vehicle: saline 98 % of control

From PubChem BioAssay AID248 (DTP/NCI, 2004)
